Reference: PubChem BioAssay AID2305 (GlaxoSmithKline (GSK), 2010)
Values joined by “and” are separate entries in the source; they are usually repeats but may differ in a detail not shown here. Equal values may be shown once.

These molecules were tested on P. falciparum 3D7 growth, pLDH absorbance (assay: blood-stage malaria parasite growth potency – strain 3D7, dose response (AID 2305)).

Point of comparison: `Nc1nc2ncn(COC(COCc3ccccc3)COCc3ccccc3)c2c(=O)[nH]1` (tested in a mixture with another compound), IC50 710 nM. Against it:
- Cc1ccc(Nc2nccc(NCC(O)c3cccc(C(F)(F)F)c3)n2)cc1 (centres undefined) — within 1.5-fold, 680 nM
- c1ccc(C23N=C(Nc4nc5ccccc5[nH]4)NC2(c2ccccc2)NC(Nc2nc4ccccc4[nH]2)=N3)cc1 (centres undefined) — 2.5-fold lower, 280 nM
- Cc1cccc(NC(=O)NCc2ccccc2)n1 — within 1.5-fold, 940 nM
- O=C(C=Cc1ccccc1)Nc1ccc(C#CC=Cc2ccc(NC(=O)C=Cc3ccccc3)cc2)cc1 — within 1.5-fold, 850 nM
- CCCc1cc(NC2CCN(C)CC2)nc(Nc2cccc(OC)c2)n1 — within 1.5-fold, 770 nM
- Nc1ccc2nc(C=Cc3ccc(Cl)cc3)[nH]c2c1 — within 1.5-fold, 940 nM
- O=C(Nc1ccc(-c2nc3ccccc3[nH]2)cc1)c1ccc(S(=O)(=O)N2CCCCC2)cc1 — within 1.5-fold, 750 nM
- CC(C)c1cc2c(ccc3nc(N)nc(N)c32)o1 — 7.9-fold lower, 90 nM
- NCCc1cccc(-c2cnc3[nH]cc(-c4ccc(C(=O)O)cc4)c3c2)c1 — 1.8-fold lower, 400 nM
- O=C(CCCC(=O)Nc1ccc(C2=NCCN2)cc1)Nc1ccc(C2=NCCN2)cc1 — 6.5-fold lower, 110 nM
- c1ccc(Oc2ccc(Nc3ccnc(Nc4ccc(CN5CCOCC5)cc4)n3)cc2)cc1 — within 1.5-fold, 940 nM
- COc1cccc2[nH]c(NCCCNCc3cc(Br)cc(Br)c3)nc12 — within 1.5-fold, 950 nM
- Cc1cc(NN=Cc2ccccn2)c2cc(C(F)(F)F)ccc2n1 — within 1.5-fold, 620 nM
- Nc1nc(Cc2ccc(Cl)cc2)nc(Cc2ccc(Cl)cc2)n1 — within 1.5-fold, 930 nM
- Brc1ccc(C=NNc2nc3ccccc3[nH]2)cc1 — within 1.5-fold, 700 nM
- CCOC(=O)c1ccc(NC(=O)N(Cc2ccc(-c3ccc(CN4CCNCC4)cc3)cc2)C2CCN(Cc3ccccc3)CC2)cc1 — within 1.5-fold, 800 nM
- Cc1[nH]c2ccccc2c1C1=CCN(CCN2CCCc3c(Br)cccc3C2=O)CC1 — within 1.5-fold, 660 nM
- Cc1cccc2[nH]c(-c3ccc(-c4cccc(CNCCNC(=O)c5ccnn5C)c4)cc3)nc12 — 1.8-fold lower, 400 nM
- CC(=O)Nc1ncc(C(=O)Nc2cccc(-c3ccc(-c4nc5ccccc5[nH]4)cc3)c2)s1 — within 1.5-fold, 670 nM
- Cc1cccc(CNc2nc(C)cc(NCCC(=O)NCCOc3ccccc3)n2)c1 — within 1.5-fold, 870 nM
- COc1c(CCNCCCCNCCc2cc(Cl)c3ccccc3c2OC)cc(Cl)c2ccccc12 — 4.2-fold lower, 170 nM
- O=C(Nc1ccc(-c2ccccc2)c(OCCN2CCNCC2)c1)c1ccc(-c2ccc(Cl)cc2)cc1 — within 1.5-fold, 780 nM
- Cc1ccc(CNC(=O)[C@H](Cc2ccccc2)Nc2cc(C)nc(NCCc3ccc(F)cc3)n2)cc1 — within 1.5-fold, 980 nM
- COc1cc(C(=O)NC2CCN(Cc3ccccc3)CC2)ccc1-c1cc2cc(Cl)c(Cl)cc2[nH]1 — 3.1-fold lower, 230 nM
- COc1ccc(NC(=O)[C@H](CC(C)C)Nc2cc(C)nc(NCCc3ccccc3OC)n2)cc1 — within 1.5-fold, 990 nM
- COc1c(C2CCN(CCCCNC(=O)c3ccc(-c4ccc(C#N)cc4)cc3)CC2)cc(Cl)c2c1CCCC2 — within 1.5-fold, 780 nM
- CCN(CC)CCN(Cc1ccc(-c2ccc(C(F)(F)F)cc2)cc1)C(=O)Cn1c(/C=C/c2ccco2)nc(=O)c2ccccc21 — within 1.5-fold, 870 nM
- CNc1ccc(CNCc2cccc(-c3ccc(-c4nc5c(C)cccc5[nH]4)cc3)c2)cc1 — within 1.5-fold, 660 nM
- CCNc1cc(C(=O)N[C@@H](Cc2ccccc2)[C@H](O)CNCc2cc(OC)cc(OC)c2)cc(N2CCCC2=O)c1 — within 1.5-fold, 740 nM
- CCCc1cnc2nc(N)nc(N)c2c1C — 1.6-fold higher, 1120 nM
- COc1ccc(CNCc2ccc(-c3ccc(-c4nc5c(C)cccc5[nH]4)cc3)cc2)cc1 — 2.1-fold lower, 340 nM
- CCN(CC)CCNc1cc(C)nc(/N=C(\N)Nc2ccc(Cl)cc2)n1 — 5.5-fold lower, 130 nM
- O=C(Nc1cccc(CN2CCCN(Cc3cccc(O)c3)CC2)c1)c1ccc(Cl)c(Cl)c1 — within 1.5-fold, 660 nM
- O=C(Nc1ccc2c(c1)CCN2C1CCN(Cc2cccc(C(F)(F)F)c2)C1)c1ccco1 (centres undefined) — within 1.5-fold, 560 nM
- O=C(Cc1cnc[nH]1)Nc1cccc(-c2cccc(-c3nc4ccc(C(F)(F)F)cc4[nH]3)c2)c1 — 3.1-fold lower, 230 nM
- CC(=O)Nc1ccc(Nc2c3ccccc3nc3ccccc23)cc1 — within 1.5-fold, 1020 nM
- COC(=O)C1=CNC=C(C(=O)OC)C1c1ccc(Cl)c([N+](=O)[O-])c1 — within 1.5-fold, 680 nM

In the case of `O=C(C=Cc1ccc(F)c(Br)c1)NC1CCC(CN2CCC(c3c[nH]c4ccccc34)CC2)CC1` (centres undefined), the IC50 is reported as 790 nM and 840 nM.
